Experimental data taken from article PMC7355497 (Pharmaceutics, 2020).
Counter-ions that a name gives are not always drawn.

Key:
P-gp = P-gp (Homo sapiens, UniProt P08183); details: 15 min, 10 μM
Protocol: The P-gp inhibition effect of anthraquinones from R. acetosa was evaluated via MDR assay kit using Caco-2 cells. […] The MDR dye-loading solution was added at a volume of 100 μL and incubated. Fluorescence intensity was detected with a microplate reader Synerge H1 (Biotek, Winooski, VT, USA) at a wavelength of 490 nm for the excitation and 525 nm for the emission.

[1] = cited from earlier work

Chain of P-gp (P08183 whole entry): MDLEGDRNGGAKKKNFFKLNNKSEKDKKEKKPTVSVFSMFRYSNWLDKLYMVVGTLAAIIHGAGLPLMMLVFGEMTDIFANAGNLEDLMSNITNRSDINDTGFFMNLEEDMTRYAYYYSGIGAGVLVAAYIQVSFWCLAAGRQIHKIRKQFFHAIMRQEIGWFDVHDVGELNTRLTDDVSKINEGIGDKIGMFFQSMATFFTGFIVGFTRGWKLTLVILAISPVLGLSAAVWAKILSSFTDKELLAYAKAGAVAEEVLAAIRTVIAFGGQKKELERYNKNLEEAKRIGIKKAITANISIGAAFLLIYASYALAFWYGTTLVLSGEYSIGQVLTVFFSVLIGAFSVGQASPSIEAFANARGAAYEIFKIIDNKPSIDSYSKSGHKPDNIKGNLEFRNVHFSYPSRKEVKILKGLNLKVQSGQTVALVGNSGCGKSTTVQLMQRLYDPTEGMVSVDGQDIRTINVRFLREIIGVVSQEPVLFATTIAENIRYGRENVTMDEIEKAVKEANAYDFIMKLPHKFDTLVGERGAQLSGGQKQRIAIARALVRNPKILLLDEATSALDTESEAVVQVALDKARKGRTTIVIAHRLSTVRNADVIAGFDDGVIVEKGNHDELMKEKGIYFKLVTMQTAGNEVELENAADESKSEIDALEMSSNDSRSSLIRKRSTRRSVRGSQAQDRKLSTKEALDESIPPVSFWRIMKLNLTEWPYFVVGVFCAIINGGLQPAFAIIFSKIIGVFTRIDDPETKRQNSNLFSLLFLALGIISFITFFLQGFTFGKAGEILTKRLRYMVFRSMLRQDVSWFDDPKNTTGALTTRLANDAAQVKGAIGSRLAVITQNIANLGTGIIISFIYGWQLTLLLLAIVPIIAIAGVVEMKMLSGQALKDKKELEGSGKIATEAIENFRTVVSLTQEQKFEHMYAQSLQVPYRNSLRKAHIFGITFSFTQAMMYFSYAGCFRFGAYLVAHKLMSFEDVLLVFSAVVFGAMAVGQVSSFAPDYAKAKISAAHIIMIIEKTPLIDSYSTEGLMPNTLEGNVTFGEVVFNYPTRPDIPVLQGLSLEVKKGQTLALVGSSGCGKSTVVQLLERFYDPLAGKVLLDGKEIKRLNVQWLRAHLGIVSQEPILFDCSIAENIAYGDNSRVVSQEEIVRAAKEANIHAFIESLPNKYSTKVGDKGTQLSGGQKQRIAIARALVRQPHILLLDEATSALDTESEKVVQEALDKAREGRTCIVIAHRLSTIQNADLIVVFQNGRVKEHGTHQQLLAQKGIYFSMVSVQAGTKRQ

Row | Compound | Fluorescence intensity as percentage of control group (P-gp inhibition) (P-gp) | Fraction of dose excreted into feces as the unchanged form [1] [%] | Fraction of dose excreted into urine as the unchanged form [1] [%]
1 | Cc1cc(O)c2c(c1)C(=O)c1cc(O)cc(O)c1C2=O [emodin] | 147.2% ± 12.4 |  | 
2 | CC(C)(C(=O)O)c1ccc(C(O)CCCN2CCC(C(O)(c3ccccc3)c3ccccc3)CC2)cc1 (stereo not drawn) [fexofenadine, Fexofenadine hydrochloride] |  | 80 | 11
